Results reported in patent US20250230193A1, “CYCLIC COMPOUND HAVING SELECTIVE KRAS INHIBITORY EFFECT ON HRAS AND NRAS” (CHUGAI SEIYAKU KABUSHIKI KAISHA, priority 2022, published 2025).
Where a SMILES comes first, the peptide text is derived from it. Bridges are numbered along the chain shown (N, C = ends). [ ]: non-standard residue; d: D form. The star is where a group is joined. hPhe(3-Cl-4-CF3) = N[C@@H](CCc1ccc(C(F)(F)F)c(Cl)c1)C(=O)O; NPrPhe(4-CF3) = CCCN[C@@H](Cc1ccc(C(F)(F)F)cc1)C(=O)O; NMeGly(cPent) = CN[C@H](C(=O)O)C1CCCC1; NMeGly(cBu) = CN[C@H](C(=O)O)C1CCC1; NMeD = CN[C@@H](CC(=O)O)C(=O)O; Morpholide = C1CN(*)CCO1; Ac5c = NC1(C(=O)O)CCCC1; Sar = CNCC(=O)O

How the values were obtained:
[1] = target: GDP-bound NRAS wild-type protein (Homo sapiens, UniProt P01111); experiment: Binding to NRAS by surface plasmon resonance (SPR), Single Cycle Kinetics
Sequence of GDP-bound NRAS wild-type protein (P01111 whole entry): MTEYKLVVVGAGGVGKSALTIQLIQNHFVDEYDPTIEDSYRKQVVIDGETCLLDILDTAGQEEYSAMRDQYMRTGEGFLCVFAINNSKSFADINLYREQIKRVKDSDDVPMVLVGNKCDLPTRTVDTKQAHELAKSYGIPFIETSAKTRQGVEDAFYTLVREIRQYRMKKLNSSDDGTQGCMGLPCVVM

[2] = target: GDP-bound HRAS wild-type protein (Homo sapiens, UniProt P01112); experiment: Binding to HRAS by surface plasmon resonance (SPR), Single Cycle Kinetics
Sequence of GDP-bound HRAS wild-type protein (P01112 whole entry): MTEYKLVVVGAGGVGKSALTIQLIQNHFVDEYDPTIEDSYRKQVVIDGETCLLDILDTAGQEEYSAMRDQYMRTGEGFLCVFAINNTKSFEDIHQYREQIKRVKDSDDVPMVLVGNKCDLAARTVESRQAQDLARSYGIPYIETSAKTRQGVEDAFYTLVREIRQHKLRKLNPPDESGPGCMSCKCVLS

[3] = SPR, GDP-bound NRAS wild-type vs GDP-bound KRAS wild-type
[4] = SPR, GDP-bound HRAS wild-type vs GDP-bound KRAS wild-type
[5] = KD ratio, GDP-bound NRAS wild-type vs GDP-bound KRAS wild-type, SPR
[6] = KD ratio, GDP-bound HRAS wild-type vs GDP-bound KRAS wild-type, SPR

CCCN1C(=O)CN(C)C(=O)CN(C)C(=O)[C@H]([C@@H](C)CC)NC(=O)[C@H](C2CCC2)N(C)C(=O)C[C@@H](C(=O)N2CCOCC2)N(C)C(=O)[C@H](C2CCCC2)N(C)C(=O)C2(CCCC2)NC(=O)[C@@H]2CCCN2C(=O)[C@H](CCc2ccc(C(F)(F)F)c(Cl)c2)NC(=O)CN(C)C(=O)[C@@H]1Cc1ccc(C(F)(F)F)cc1 [PP0188] ([NMeGly(cBu)]I[Sar][Sar][NPrPhe(4-CF3)][Sar][hPhe(3-Cl-4-CF3)]P[Ac5c][NMeGly(cPent)][NMeD]-Morpholide; lactam N-11)
NRAS/KRAS (ratio of KD for GDP-bound NRAS wild-type to KD for KRAS) ([1]; KD ratio NRAS/KRAS, SPR): B (a compound having 3 or more and less than 10 is denoted as B) | HRAS/KRAS (ratio of KD for GDP-bound HRAS wild-type to KD for KRAS) ([2]; KD ratio HRAS/KRAS, SPR): C (A compound having a KD ratio of 0.1 or more and less than 3 is denoted as C)

CCO[C@@H]1C[C@H]2C(=O)NC3(CC(C)(C)C3)C(=O)N(C)[C@@H](C(CC)CC)C(=O)N(C)[C@H](C(=O)N(C)C)CC(=O)N(C)[C@@H](COC)C(=O)N[C@@H]([C@@H](C)CC)C(=O)N(C)CC(=O)N(C)[C@H]3C/C=C\CCN(C3=O)[C@@H](CC3CCCCC3)C(=O)N(C)CC(=O)N[C@@H](CCc3ccc(C(F)(F)F)c(OC)c3)C(=O)N2C1 [PP2452]
NRAS/KRAS (ratio of KD value with respect to NRAS to KD value with respect to KRAS) [1, 3]: A (a compound having 10 or more and less than 20 is denoted as A) | HRAS/KRAS (ratio of KD value with respect to HRAS to KD value with respect to KRAS) [2, 4]: A (a compound having 10 or more and less than 20 is denoted as A)

CCC[C@H]1C(=O)N[C@@H]([C@@H](C)CC)C(=O)N(C)CC(=O)N(C)[C@H]2C/C=C\CCN(C2=O)[C@@H](Cc2ccc(C)cc2)C(=O)N(C)CC(=O)N[C@@H](CCc2ccc(C(F)(F)F)c(OC)c2)C(=O)N2C[C@H](C)C[C@H]2C(=O)NC2(CCC2)C(=O)N(C)[C@@H](C2CCCC2)C(=O)N(C)[C@H](C(=O)N(C)C)CC(=O)N1C [PP1859]
NRAS/KRAS (ratio of KD value for NRAS to KD value for KRAS) [1, 5]: A (a compound having 10 or more and less than 20 is denoted as A) | HRAS/KRAS (ratio of KD value for HRAS to KD value for KRAS) [2, 6]: A (a compound having 10 or more and less than 20 is denoted as A)

CCCO[C@@H]1C[C@H]2C(=O)NC3(CC(C)(C)C3)C(=O)N(C)[C@@H](C3CCCC3)C(=O)N(C)[C@H](C(=O)N(C)CC)CC(=O)N(C)[C@H]3CCCc4ccc(cc4)C[C@@H](C(=O)N(C)CC(=O)N[C@@H](CCc4ccc(Cl)c(Cl)c4)C(=O)N2C1)N1CC/C=C\C[C@@H](C1=O)N(C)C(=O)CN(C)C(=O)[C@H]([C@@H](C)CC)NC3=O [PP3089]
NRAS/KRAS (ratio of KD value with respect to GDP-bound NRAS wild-type protein to KD value with respect to KRAS) ([1]; KD ratio NRAS/KRAS, SPR, GDP-bound wild-type proteins): B (a compound having 3 or more and less than 10 is denoted as B) | HRAS/KRAS (ratio of KD value with respect to GDP-bound HRAS wild-type protein to KD value with respect to KRAS) ([2]; KD ratio HRAS/KRAS, SPR, GDP-bound wild-type proteins): B (a compound having 3 or more and less than 10 is denoted as B)

CCC[C@H]1C(=O)N[C@@H]([C@@H](C)CC)C(=O)N(C)CC(=O)N(C)[C@H]2C/C=C\CCN(C2=O)[C@@H](Cc2ccc(C)cc2)C(=O)N(C)CC(=O)N[C@@H](CCc2ccc(Cl)c(Cl)c2)C(=O)N2C[C@H](OCC)C[C@H]2C(=O)NC2(CC(C)(C)C2)C(=O)N(C)[C@@H](CC2CCC2)C(=O)N(C)[C@H](C(=O)N(C)C)CC(=O)N1C [PP2755]
NRAS/KRAS (ratio of KD value with respect to GDP-bound NRAS wild-type protein to KD value with respect to KRAS) ([1]; KD ratio NRAS/KRAS, class symbols): A (a compound having 10 or more and less than 20 is denoted as A) | HRAS/KRAS (ratio of KD value with respect to GDP-bound HRAS wild-type protein to KD value with respect to KRAS) ([2]; KD ratio HRAS/KRAS, class symbols): A (a compound having 10 or more and less than 20 is denoted as A)

CCO[C@@H]1C[C@H]2C(=O)NC3(CCC3)C(=O)N(C)[C@@H](C3CCCC3)C(=O)N(C)[C@H](C(=O)N(C)C)CC(=O)N(C)[C@@H](CC)C(=O)N[C@@H]([C@@H](C)CC)C(=O)N(C)CC(=O)N(C)[C@H]3CCCCCN(C3=O)[C@@H](Cc3ccc(C(F)(F)F)cc3)C(=O)N(C)CC(=O)N[C@@H](CCc3c(F)c(F)c(C(F)(F)F)c(F)c3F)C(=O)N2C1 [PP0891]
NRAS/KRAS (ratio of KD value with respect to NRAS to KD value with respect to KRAS) [1, 5]: B (a compound having 3 or more and less than 10 is denoted as B) | HRAS/KRAS (ratio of KD value with respect to HRAS to KD value with respect to KRAS) [2, 6]: B (a compound having 3 or more and less than 10 is denoted as B)

CCOC[C@H]1C(=O)N[C@@H]([C@@H](C)CC)C(=O)N(C)CC(=O)N(C)[C@H]2C/C=C\CCN(C2=O)[C@@H](Cc2ccc(C)cc2)C(=O)N(C)CC(=O)N[C@@H](CCc2ccc(C(F)(F)F)c(Cl)c2)C(=O)N2C[C@H](OCC)C[C@H]2C(=O)NC2(CC(C)(C)C2)C(=O)N(C)[C@@H](C2CCCC2)C(=O)N(C)[C@H](C(=O)N(C)C)CC(=O)N1C [PP2395]
NRAS/KRAS (ratio of KD value with respect to NRAS to KD value with respect to KRAS) [1, 3]: A (a compound having 10 or more and less than 20 is denoted as A) | HRAS/KRAS (ratio of KD value with respect to HRAS to KD value with respect to KRAS) [2, 4]: B (a compound having 3 or more and less than 10 is denoted as B)
